Active and inactive are the calls of the source. The rule behind the calls is not given here. Bounds are passed on as bounds.

The target of this experiment is Luciferin 4-monooxygenase (Photinus pyralis) (UniProt P08659). The experiment is described as follows: inhibition of purified Photinus pyralis luciferase – biochemical, luminescence, dose response (AID 1891). The conditions noted are these: purified firefly luciferase.
In the case of `Nc1ncnc2c1ncn2[C@@H]1O[C@H](CO)[C@@H](O)[C@H]1O`, the IC50 is > 11.2 µM (inactive). The same measure for `CCNC(=O)[C@H]1O[C@@H](n2cnc3c(N)ncnc32)[C@H](O)[C@@H]1O`: > 11.2 µM (inactive); for `CCNC(=O)C1OC(n2cnc3c(N)ncnc32)C(O)C1O` (centres undefined): > 11.2 µM (inactive). With `Nc1ncnc2c1ncn2C1OC(CO)C(O)C1O` (centres undefined), the IC50 was > 11.2 µM (inactive).

These data come from PubChem BioAssay AID1891 (Broad Institute, 2009).
